Assay [1] addresses T1, CETP (Homo sapiens, UniProt P11597).
T1 construct: from tissue; host or cells: human plasma
T1 sequence (P11597 18-493): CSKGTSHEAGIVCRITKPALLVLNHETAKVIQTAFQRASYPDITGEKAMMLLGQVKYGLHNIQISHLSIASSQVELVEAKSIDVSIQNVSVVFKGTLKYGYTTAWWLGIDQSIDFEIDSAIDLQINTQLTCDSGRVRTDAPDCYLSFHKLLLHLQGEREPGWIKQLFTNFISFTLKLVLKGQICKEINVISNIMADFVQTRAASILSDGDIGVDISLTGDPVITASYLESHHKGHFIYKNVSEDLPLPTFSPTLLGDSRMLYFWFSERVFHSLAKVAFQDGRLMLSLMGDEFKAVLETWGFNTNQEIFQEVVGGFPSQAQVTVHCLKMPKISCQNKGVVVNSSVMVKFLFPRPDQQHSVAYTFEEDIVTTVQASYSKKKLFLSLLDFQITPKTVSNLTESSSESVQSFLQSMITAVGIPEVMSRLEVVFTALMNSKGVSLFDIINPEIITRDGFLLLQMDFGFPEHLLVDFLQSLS
Description: Measurement of CETP inhibitory action in human plasma (Roar Biomedical CETP Activity kit, fluorescence). In kind it is biochemical. The following applies: human plasma incubated with compound at 37° C. for 4 hours; calculated from CETP inhibitory rate at two or more concentrations; read-out: IC50 (concentration inhibiting the CETP activity by 50%). The method, then: A solution obtained by dissolving an exemplary compound or a comparative compound in polyethylene glycol/N-methyl-2-pyrrolidone (vol/vol=1/1) was added to human plasma, and the mixture was incubated in an incubator at 37° C. for 4 hours. The CETP activity in this plasma was measured with Cholesteryl Ester Transfer Protein Activity kit (Roar Biomedical, catalog No.: RB-CETP). Specifically, to each well of a 96-well plate, 95 μL of a buffer (10 mM Tris, 150 mM NaCl, 2 mM EDTA, pH 7.4), 2 μL of Donor particle and 2 μL of Acceptor particle were added, 1 μL of the human plasma after the incubation was added to the mixture, and the mixture was incubated in an incubator at 37° C. for 2 hours. After completion of the incubation, fluorescence intensity (FLU) was measured with a fluorescence plate reader (excitation wavelength: 465 nm, emission wavelength: 535 nm). In accordance with the following equation 1, the CETP activity (% of control) was obtained for the compounds of the examples and the comparative compounds for two or more concentrations. CETP activity (% of control)=(Sample FLU−Blank FLU)×100/(Control FLU−Blank FLU) (Equation 1) In the equation, the terms have the following meanings: Blank FLU: Fluorescence intensity of sample not added with plasma Control FLU: Fluorescence intensity of plasma not added with solution of compound Sample FLU: Fluorescence intensity of plasma added with solution of compound
A value obtained by subtracting the value of the CETP activity from 100 was defined as the CETP inhibitory rate of each exemplary compound, and a concentration inhibiting the CETP activity by 50% (IC50) was calculated for each exemplary compound from the values of the CETP inhibitory rate at two or more concentrations. As the comparative compound, the following compound was used, which is the pyrimidine compound having a benzyl(heterocyclylmethyl)amine structure described in Example 66 of Patent document 10 (International Patent Publication WO2006/073973).

In assay [2] the test system is CETP. The experiment in a line: Measurement of CETP inhibitory activity in blood of hamster (single oral administration). The assay is classed as in vivo. The following applies: hamster plasma, single oral dose 30 mg/kg in olive oil, blood collected 2 hours after administration, n=3; control 33.7 ± 2.3. Here is the method: 1: Labeling of Donor Lipoprotein (HDL3 Fraction) with ^3H-Cholesterol and Preparation of Acceptor Lipoprotein (LDL Fraction)
The donor lipoprotein was prepared by adding KBr to plasma of healthy human subject (50 mL) to adjust the specific gravity (d) of the plasma to be 1.125, centrifuging the mixture at 100,000 rpm and 4° C. for 2.5 hours (Optima Max-E TLA-100.2 rotor, Beckman), and collecting the lower layer (HDL3 fraction, d>1.125). The resulting fraction was dialyzed against PBS (10 mM Na2HPO4, 10 mM NaH2PO4, 0.15 M NaCl, 1 mM EDTA-2Na, pH 7.4). Then, a 95% ethanol solution of 9.25 MBq 1, 2-3H(N)cholesterol (NEN™, Life Science Products, USA) was added to the sample with stirring, and the mixture was incubated at 37° C. for 18 hours. […]
To 10 μL of the hamster plasma, 5 μL of ^3H-labeled HDL3 and […] of LDL were added, and the final volume of the mixture was made 600 μL with a TBS solution (10 mM Tris, 0.15 M NaCl, pH 7.4). […] Then, radioactivity of 3H was measured with a liquid scintillation counter (TRI-CARB 2700 TR, Packard). […] CETP activity (%)=(Blank dpm−Sample dpm)×100/(Blank dpm) (Equation 2) In the equation, the terms have the following meanings: Blank dpm: Value of 3H radioactivity of sample not added with plasma Sample dpm: Value of ^3H radioactivity of sample added with compound or control sample.

With `CCN(CC1CCCC1)c1nc2ccccc2cc1CN(Cc1cc(C(F)(F)F)cc(C(F)(F)F)c1)c1ncccn1` [Comparative Compound 1, reference compound], on CETP [1], the potency estimated from few doses is 20000 nM. For the same compound, the “Average CETP activity ± standard deviation (%)” value with CETP [2] came to 30.3 ± 4.2%.

Take `CCN(CC1CCCC1)c1ccc(OC)nc1CN(c1ncc(OCC[S+](C)[O-])cn1)C(C)c1cc(C(F)(F)F)cc(C(F)(F)F)c1` (centres unmarked) [Example 2, N-{1-[3,5-bis(trifluoromethyl)phenyl]ethyl}-N-({3-[(cyclopentylmethyl)(ethyl)amino]-6-methoxypyridin-2-yl}methyl)-5-[2-(methylsulfinyl)ethoxy]pyrimidin-2-amine]: the potency estimated from few doses at CETP [1] was 150 nM.

As for `CCN(CC1CCCC1)c1ccc(OC)nc1CN(c1ncc(OCCS(C)(=O)=O)cn1)C(C)c1cc(C(F)(F)F)cc(C(F)(F)F)c1` (centres unmarked) [Example 3, N-{1-[3,5-bis(trifluoromethyl)phenyl]ethyl}-N-({3-[(cyclopentylmethyl)(ethyl)amino]-6-methoxypyridin-2-yl}methyl)-5-[2-(methylsulfonyl)ethoxy]pyrimidin-2-amine], the potency estimated from few doses at CETP [1] is 150 nM.

For `CCN(CC1CCCC1)c1nc2c(cc1CN(c1ncc(OCCS(C)(=O)=O)cn1)C(C)c1cc(C(F)(F)F)cc(C(F)(F)F)c1)c(C)nn2C` (centres unmarked) [Example 5, 5-[({1-[3,5-bis(trifluoromethyl)phenyl]ethyl}{5-[2-(methylsulfonyl)ethoxy]pyrimidin-2-yl}amino)methyl]-N-(cyclopentylmethyl)-N-ethyl-1,3-dimethyl-1H-pyrazolo[3,4-b]pyridin-6-amine], the potency estimated from few doses on CETP [1] was 35 nM. Besides, the “Average CETP activity ± standard deviation (%)” value in the assay with CETP [2] came out at 3.7 ± 3.2%.

Turning to `CCN(CC1CCCC1)c1nc2ccccc2cc1CN(c1ncc(OCCS(C)(=O)=O)cn1)C(C)c1cc(C(F)(F)F)cc(C(F)(F)F)c1` (centres unmarked) [Example 7, 3-[({1-[3,5-bis(trifluoromethyl)phenyl]ethyl}{5-[2-(methylsulfonyl)ethoxy]pyrimidin-2-yl}amino)methyl]-N-(cyclopentylmethyl)-N-ethylquinolin-2-amine], the potency estimated from few doses on CETP [1] is 50 nM.

As to `CCN(CC1CCCC1)c1nc2ccc(OC)cc2cc1CN(c1ncc(OCCS(C)(=O)=O)cn1)C(C)c1cc(C(F)(F)F)cc(C(F)(F)F)c1` (centres unmarked) [Example 9, 3-[({1-[3,5-bis(trifluoromethyl)phenyl]ethyl}{5-[2-(methylsulfonyl)ethoxy]pyrimidin-2-yl}amino)methyl]-N-(cyclopentylmethyl)-N-ethyl-6-methoxyquinolin-2-amine], the potency estimated from few doses on CETP [1] is 500 nM.

In the case of `CCN(CC1CCCC1)c1nc2ccc(C(F)(F)F)cc2cc1CN(c1ncc(OCCS(C)(=O)=O)cn1)C(C)c1cc(C(F)(F)F)cc(C(F)(F)F)c1` (centres unmarked) [Example 11, 3-[({1-[3,5-bis(trifluoromethyl)phenyl]ethyl}{5-[2-(methylsulfonyl)ethoxy]pyrimidin-2-yl}amino)methyl]-N-(cyclopentylmethyl)-N-ethyl-6-trifluoromethylquinolin-2-amine], the potency estimated from few doses at CETP [1] was 80 nM.

As to `CCN(CC1CCCC1)c1nc2ccc(C)cc2cc1CN(c1ncc(OCCS(C)(=O)=O)cn1)C(C)c1cc(C(F)(F)F)cc(C(F)(F)F)c1` (centres unmarked) [Example 13, 3-[({1-[3,5-bis(trifluoromethyl)phenyl]ethyl}{5-[2-(methylsulfonyl)ethoxy]pyrimidin-2-yl}amino)methyl]-N-(cyclopentylmethyl)-N-ethyl-6-methylquinolin-2-amine], the potency estimated from few doses on CETP [1] was 80 nM.

Turning to `CCN(CC1CCCC1)c1nc(C)ccc1CN(c1ncc(OCCS(C)(=O)=O)cn1)C(C)c1cc(C(F)(F)F)cc(C(F)(F)F)c1` (centres unmarked) [Example 15, N-{1-[3,5-bis(trifluoromethyl)phenyl]ethyl}-N-({2-[(cyclopentylmethyl)(ethyl)amino]-6-methylpyridin-3-yl}methyl)-5-[2-(methylsulfonyl)ethoxy]pyrimidin-2-amine], on CETP [1], the potency estimated from few doses is 200 nM.

On to `CCc1ccc(CN(c2ncc(OCCS(C)(=O)=O)cn2)C(C)c2cc(C(F)(F)F)cc(C(F)(F)F)c2)c(N(CC)CC2CCCC2)n1` (centres unmarked) [Example 17, N-{1-[3,5-bis(trifluoromethyl)phenyl]ethyl}-N-({2-[(cyclopentylmethyl)(ethyl)amino]-6-ethylpyridin-3-yl}methyl)-5-[2-(methylsulfonyl)ethoxy]pyrimidin-2-amine], for which, at CETP [1], the potency estimated from few doses was 45 nM.

As to `CCN(CC1CCCC1)c1nc(C)c(C)cc1CN(c1ncc(OCCS(C)(=O)=O)cn1)C(C)c1cc(C(F)(F)F)cc(C(F)(F)F)c1` (centres unmarked) [Example 19, N-{1-[3,5-bis(trifluoromethyl)phenyl]ethyl}-N-({2-[(cyclopentylmethyl)(ethyl)amino]-5,6-dimethylpyridin-3-yl}methyl)-5-[2-(methylsulfonyl)ethoxy]pyrimidin-2-amine], the potency estimated from few doses on CETP [1] was 30 nM.

Regarding `CCN(CC1CCCC1)c1nc2c(cc1CN(c1ncc(OCCS(C)(=O)=O)cn1)C(C)c1cc(C#N)cc(C(F)(F)F)c1)c(C)nn2C` (centres unmarked) [Example 23, 3-{1-[({6-[(cyclopentylmethyl)(ethyl)amino]-1,3-dimethyl-1H-pyrazolo[3,4-b]pyridin-5-yl}methyl){5-[2-(methylsulfonyl)ethoxy]pyrimidin-2-yl}amino]ethyl}-5-(trifluoromethyl)benzonitrile], at CETP [1], the potency estimated from few doses was 150 nM.

The values above are taken from patent US7790737B2, “Substituted pyrimidine compounds and their utility as CETP inhibitors” (Kowa Company, Ltd., priority 2007, dated 2010).
